Measured values from patent publication US20240207285A1 (Melt Pharmaceuticals, Inc., priority 2022, published 2024).

What was measured:
[1] = system: subjects undergoing cataract extraction with lens replacement (CELR); test: Phase 2 subjects completing the surgery; format: in vivo, human; settings: Visit 2 (Day 1); Full Analysis Set
Method: (§1) The number of subjects achieving analgesia response (observed) in the full analysis set was determined. Success in analgesia response was defined as NPRS <4 at the available at the available four intraoperative timepoints and a failure otherwise (e.g., any interoperative pain rescue was assumed to be a failure. Results are provided in TABLE 24. The number of subjects completing the surgery is provided in TABLE 25, and the number of subjects completing the surgery without interruption is provided in TABLE 26. For this measure, subjects completing the surgery without interruption (other than rescue medication) due to pain or anxiety were considered successes. The number of subjects requiring rescue sedative medication and those requiring analgesic medication are provided in TABLES 27 and 28, respectively. For all TABLES 24-28, p-Values between pairs of treatments were calculated and are provided.

[2] = system: subjects undergoing cataract extraction with lens replacement (CELR); test: Phase 2 mean intraoperative analgesia by the numeric pain rating scale; format: in vivo, human
Method: An average of the available timepoints was also calculated.

[3] = system: subjects undergoing cataract extraction with lens replacement (CELR); test: Phase 2 subjects wanting study drug again for a second surgery (11-point Likert scale); format: in vivo, human
Text: Post-operation, subjects were asked whether they would want the study drug again for a second surgery using an 11-point Likert scale of 0 (not likely at all) to 10 (extremely likely).

[4] = system: subjects undergoing cataract extraction with lens replacement (CELR); test: Phase 2 subjects receiving opioid concomitant medication postoperatively; format: in vivo, human
[5] = system: subjects undergoing cataract extraction with lens replacement (CELR); test: Phase 2 subjects requiring rescue sedative medication; format: in vivo, human; settings: Visit 2 (Day 1)
Method: as §1

[6] = system: subjects undergoing cataract extraction with lens replacement (CELR); test: Phase 2 subjects requiring rescue analgesic medication; format: in vivo, human; settings: Visit 2 (Day 1); Full Analysis Set
Method: as §1

[7] = system: subjects undergoing cataract extraction with lens replacement (CELR); test: Phase 2 subjects achieving procedural sedation (RSS 2 or 3 without rescue); format: in vivo, human; settings: Visit 2 (Day 1), Full Analysis Set
Method: A Phase 2 efficacy and safety study of the MELT-300 formulation was conducted at nine sites with over 300 enrolled subjects. MELT-300 is a sublingual, needle- and opioid-free formulation for procedural sedation during cataract surgery. […] MELT-300 utilizes fast-dissolving delivery technology (Zydis®, Catalent Inc.) to rapidly dissolve the tablet for absorption across the sublingual mucosa.
(§2) The Phase 2 study was factorial-designed, randomized, double-blind, placebo-controlled, and included parallel-cohorts. […] Primary efficacy endpoints included appropriate sedation during the cataract surgery and management of intraoperative pain during the surgery.
Achievement of procedural sedation was evaluated for each subject (see TABLE 19). Success for procedural sedation for this Phase 2 study was defined as achieving target sedation level (Ramsay Sedation Scale (RSS) scale level 2 or 3) at the start of surgery without the need for rescue sedation medication, and no need for intraoperative rescue sedation medication to maintain target sedation level.

[8] = system: subjects undergoing cataract extraction with lens replacement (CELR); test: Phase 2 treatment-emergent ocular adverse events (study eye, non-study eye, either eye); settings: for Eye disorders, % / General disorders and administration site conditions, % / Infections and infestations, % / Injury, poisoning and procedural complications, % / Investigations, %: system organ class
Method: as §2
The study eye (TABLE 31) non-study eye (TABLE 32), or either eye (TABLE 33) was assessed. TEAES were defined as events that started on or after the date of the study drug administration through the end of Visit 4 or early withdrawal. Subjects with one or more adverse event within a level of Medical Dictionary for Regulatory Activities (MedDRA) were counted only once in that level.

[9] = system: subjects undergoing cataract extraction with lens replacement (CELR); test: Phase 2 subjects completing the surgery without interruption; format: in vivo, human; settings: Visit 2 (Day 1); Full Analysis Set
Method: as §1

[10] = system: subjects undergoing cataract extraction with lens replacement (CELR); test: Phase 2 subject-rated worst pain during surgery by the numeric pain rating scale; format: in vivo, human; settings: carry forward
[11] = system: subjects undergoing cataract extraction with lens replacement (CELR); test: Phase 2 subjects achieving analgesia response (NPRS <4); format: in vivo, human; settings: Visit 2 (Day 1), observed
Method: as §1

[12] = Average of available timepoints, adjusted for site table, carry forward
[13] = Average of available timepoints, carry forward
[14] = Average of available timepoints, observed
[15] = Corneal incision, adjusted for site table, carry forward
[16] = Corneal incision, carry forward
[17] = Insertion of the phacoemulsion probe, adjusted for site table, carry forward
[18] = Insertion of the phacoemulsion probe, carry forward
[19] = Insertion of the phacoemulsion probe, observed
[20] = Insertion of the speculum, adjusted for site table, carry forward
[21] = Insertion of the speculum, carry forward
[22] = Insertion of the speculum, observed
[23] = Insertion of the synthetic replacement lens, adjusted for site table, carry forward
[24] = Insertion of the synthetic replacement lens, carry forward
[25] = Insertion of the synthetic replacement lens, observed
[26] = adjusted for site, carry forward
[27] = carry forward, repeated measures model
[28] = observed, repeated measures model
[29] = 11-point Likert scale 0 (not likely at all) to 10 (extremely likely)

Cc1ncc2n1-c1ccc(Cl)cc1C(c1ccccc1F)=NC2 [Midazolam 3 mg]
Subjects completing the surgery: No, % [1]: 0 (0) % | Subjects completing the surgery: Yes, % [1]: 100.0% | Intraoperative NPRS, LS Mean ([2]; Average of available timepoints, adjusted for site (study center covariate), carry forward): 2.12 | Intraoperative NPRS, mean [2, 12]: 2.37 | Intraoperative NPRS, median [2, 12]: 2.00 | Intraoperative NPRS, mean [2, 13]: 2.37 | Intraoperative NPRS, median [2, 13]: 2.00 | Intraoperative NPRS, LS Mean ([2]; Average of available timepoints, carry forward, repeated measures model): 2.37 | Intraoperative NPRS, mean [2, 14]: 2.18 | Intraoperative NPRS, median [2, 14]: 2.00 | Intraoperative NPRS, LS Mean ([2]; Average of available timepoints, observed, repeated measures model): 2.46 | Intraoperative NPRS, mean [2, 15]: 1.8 | Intraoperative NPRS, median [2, 15]: 1.0 | Intraoperative NPRS, mean [2, 16]: 1.8 | Intraoperative NPRS, median [2, 16]: 1.0 | Intraoperative NPRS, mean ([2]; Corneal incision, observed): 1.8 | Intraoperative NPRS, median ([2]; Corneal incision, observed): 1.0 | Intraoperative NPRS, mean [2, 17]: 2.9 | Intraoperative NPRS, median [2, 17]: 3.0 | Intraoperative NPRS, mean [2, 18]: 2.9 | Intraoperative NPRS, median [2, 18]: 3.0 | Intraoperative NPRS, mean [2, 19]: 2.5 | Intraoperative NPRS, median [2, 19]: 2.0 | Intraoperative NPRS, mean [2, 20]: 1.1 | Intraoperative NPRS, median [2, 20]: 0.0 | Intraoperative NPRS, mean [2, 21]: 1.1 | Intraoperative NPRS, median [2, 21]: 0.0 | Intraoperative NPRS, mean [2, 22]: 1.1 | Intraoperative NPRS, median [2, 22]: 0.0 | Intraoperative NPRS, mean [2, 23]: 3.6 | Intraoperative NPRS, median [2, 23]: 4.0 | Intraoperative NPRS, mean [2, 24]: 3.6 | Intraoperative NPRS, median [2, 24]: 4.0 | Intraoperative NPRS, mean [2, 25]: 2.9 | Intraoperative NPRS, median [2, 25]: 3.0 | Intraoperative NPRS, LS Mean Difference versus ketamine [2, 26]: 0.22 | Intraoperative NPRS, LS Mean Difference versus placebo [2, 26]: −0.08 | Intraoperative NPRS, LS Mean Difference versus ketamine [2, 27]: 0.20 | Intraoperative NPRS, LS Mean Difference versus placebo [2, 27]: −0.12 | Intraoperative NPRS, LS Mean Difference versus ketamine [2, 28]: 0.24 | Intraoperative NPRS, LS Mean Difference versus placebo [2, 28]: −0.01 | Want Study Drug Again, mean [3, 29]: 8.4 | Want Study Drug Again, median [3, 29]: 10.0 | Want Study Drug Again, Mean Difference versus ketamine ([3]; unpaired t-test): 0.80 | Want Study Drug Again, Mean Difference versus placebo ([3]; unpaired t-test): 0.75 | Received Postoperative Opioid on Day 2: No, % ([4]; Day 2): (100.0) % | Received Postoperative Opioid on Day 2: Yes, % ([4]; Day 2): (0.0) % | Received Postoperative Opioid on Day 2-8: No, % ([4]; Day 2-8): (100.0) % | Received Postoperative Opioid on Day 2-8: Yes, % ([4]; Day 2-8): (0.0) % | Subjects requiring rescue sedative medication: No, % ([5]; Full Analysis Set): (65.4) % | Subjects requiring rescue sedative medication: Yes, % ([5]; Full Analysis Set): (34.6) % | Subjects requiring rescue sedative medication: Intraoperatively, % ([5]; Intraoperatively): (8.6) % | Subjects requiring rescue sedative medication: Pre-operatively, % ([5]; Pre-operatively): (25.9) % | Subjects requiring rescue analgesic medication: No, % [6]: (56.8) % | Subjects requiring rescue analgesic medication: Yes, % [6]: (43.2) % | Subjects achieving procedural sedation: No, % [7]: 35.8% | Subjects achieving procedural sedation: Yes, % ([7]; RSS 2 or 3 without rescue sedation): 64.2% | Cataract operation complication, % ([8]; Either Eye): (0) % | Conjunctivitis bacterial, % ([8]; Either Eye): (0) % | Corneal abrasion, % ([8]; Either Eye): (0) % | Corneal oedema, % ([8]; Either Eye): (0) % | Endophthalmitis, % ([8]; Either Eye): (0) % | Eye pain, % ([8]; Either Eye): (3.4) % | Foreign body sensation in eyes, % ([8]; Either Eye): (0) % | Intraocular pressure increased, % ([8]; Either Eye): (2.3) % | Ocular hypertension, % ([8]; Either Eye): (1.1) % | Pain, % ([8]; Either Eye): (0) % | Paracentesis eye, % ([8]; Either Eye): (0) % | Procedural pain, % ([8]; Either Eye): (1.1) % | Subjects with Any Treatment-Emergent Ocular AEs, % ([8]; Either Eye): (9.2) % | Vision blurred, % ([8]; Either Eye): (1.1) % | Eye disorders, % ([8]; Either Eye): (5.7) % | General disorders and administration site conditions, % ([8]; Either Eye): (0) % | Infections and infestations, % ([8]; Either Eye): (0) % | Injury, poisoning and procedural complications, % ([8]; Either Eye): (1.1) % | Investigations, % ([8]; Either Eye): (2.3) % | Conjunctivitis bacterial, % ([8]; Non-Study Eye): (0) % | Eye pain, % ([8]; Non-Study Eye): (0) % | Subjects with Any Treatment-Emergent Ocular AEs, % ([8]; Non-Study Eye): (1.1) % | Vision blurred, % ([8]; Non-Study Eye): (1.1) % | Eye disorders, % ([8]; Non-Study Eye): (1.1) % | Infections and infestations, % ([8]; Non-Study Eye): (0) % | Cataract operation complication, % ([8]; Study Eye): (0) % | Corneal abrasion, % ([8]; Study Eye): (0) % | Corneal oedema, % ([8]; Study Eye): (0) % | Endophthalmitis, % ([8]; Study Eye): (0) % | Eye pain, % ([8]; Study Eye): (3.4) % | Foreign body sensation in eyes, % ([8]; Study Eye): (0) % | Intraocular pressure increased, % ([8]; Study Eye): (2.3) % | Ocular hypertension, % ([8]; Study Eye): (1.1) % | Pain, % ([8]; Study Eye): (0) % | Procedural pain, % ([8]; Study Eye): (1.1) % | Subjects with Any Treatment-Emergent Ocular AEs, % ([8]; Study Eye): (8.0) % | Eye disorders, % ([8]; Study Eye): (4.6) % | General disorders and administration site conditions, % ([8]; Study Eye): (0) % | Infections and infestations, % ([8]; Study Eye): (0) % | Injury, poisoning and procedural complications, % ([8]; Study Eye): (1.1) % | Investigations, % ([8]; Study Eye): (2.3) % | Paracentesis eye, % ([8]; printed in the Non-Study Eye table): (0) % | Subjects completing the surgery without interruption: No, % [9]: (0) % | Subjects completing the surgery without interruption: Yes, % [9]: (100.0) % | Worst Pain During Surgery, Mean Difference versus ketamine [10]: 0.38 | Worst Pain During Surgery, Mean Difference versus placebo [10]: 0.05 | Worst Pain During Surgery (NPRS), mean ([10]; Full Analysis Set): 4.0 | Worst Pain During Surgery (NPRS), median ([10]; Full Analysis Set): 4.0 | Subjects achieving analgesia response: Yes, % ([11]; NPRS <4 at four intraoperative timepoints): 40.7% | Subjects achieving analgesia response: No, % [11]: 59.3%
